# From ChEMBL document CHEMBL5316301, “Dual Nicotinamide Phosphoribosyltransferase (NAMPT) and Indoleamine 2,3-Dioxygenase 1 (IDO1) Inhibitors for the Treatment of Drug-Resistant Nonsmall-Cell Lung Cancer” (J Med Chem, 2023)
# Active and inactive are the calls of the source. No cut-off for these calls is given here.
# What was measured:
# A549 [1] = assay: Antiproliferative activity against NAMPT inhibitor-resistant A549 cells assessed as reduction in cell viability measured for 48 hrs in presence of epacadostat by CCK-8 assay; format: functional, cell-based; conditions: Homo sapiens, A549, 48 h
# A549 [2] = assay: cells; conditions: Homo sapiens, A549, 48 h
# [3] = biological target: T1, Indoleamine 2,3-dioxygenase 1 (Homo sapiens, UniProt P14902); assay: Inhibition of human recombinant IDO1 assessed as reduction in N-formylkynurenine formation using L-tryptophan as substrate preincubated for 30 mins followed by substrate addition and measured after 10 mins by SpectraMax microplate reader analysis
# T1 sequence (P14902 whole entry): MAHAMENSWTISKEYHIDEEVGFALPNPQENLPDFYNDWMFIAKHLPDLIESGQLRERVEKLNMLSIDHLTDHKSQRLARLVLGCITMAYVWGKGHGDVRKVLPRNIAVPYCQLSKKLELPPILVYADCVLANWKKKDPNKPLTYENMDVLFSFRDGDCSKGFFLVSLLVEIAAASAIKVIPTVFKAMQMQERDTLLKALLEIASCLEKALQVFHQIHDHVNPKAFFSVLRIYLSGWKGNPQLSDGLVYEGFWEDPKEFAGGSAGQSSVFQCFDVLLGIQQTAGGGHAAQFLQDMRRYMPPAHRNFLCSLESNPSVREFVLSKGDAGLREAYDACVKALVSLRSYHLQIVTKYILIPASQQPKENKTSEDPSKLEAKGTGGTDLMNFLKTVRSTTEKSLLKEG
# [4] = biological target: Nicotinamide phosphoribosyltransferase (Homo sapiens, UniProt P43490); assay: Inhibition of recombinant NAMPT (unknown origin) incubated for 60 mins by SpectraMax microplate reader analysis
# Nicotinamide phosphoribosyltransferase, sequence (P43490 whole entry): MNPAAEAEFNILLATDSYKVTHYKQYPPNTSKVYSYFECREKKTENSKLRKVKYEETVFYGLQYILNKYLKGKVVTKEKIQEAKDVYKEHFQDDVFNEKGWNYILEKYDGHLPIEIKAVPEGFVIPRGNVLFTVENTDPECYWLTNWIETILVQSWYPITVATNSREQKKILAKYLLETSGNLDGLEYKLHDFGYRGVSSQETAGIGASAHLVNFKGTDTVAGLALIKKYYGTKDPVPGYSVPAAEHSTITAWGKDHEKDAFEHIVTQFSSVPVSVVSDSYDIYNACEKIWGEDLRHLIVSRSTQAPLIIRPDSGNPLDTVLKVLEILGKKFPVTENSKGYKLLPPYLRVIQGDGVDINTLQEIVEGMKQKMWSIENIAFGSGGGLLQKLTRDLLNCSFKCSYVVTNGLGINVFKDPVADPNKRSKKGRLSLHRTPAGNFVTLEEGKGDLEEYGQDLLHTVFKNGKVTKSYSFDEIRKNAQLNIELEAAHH
# [5] = biological target: T1, Indoleamine 2,3-dioxygenase 1; assay: Inhibition of human recombinant IDO1 in human HeLa cells assessed as reduction in N-formylkynurenine formation using L-tryptophan as substrate preincubated for 24 hrs followed by substrate addition and measured after 30 mins; format: cell-based
# A549 [6] = assay: Antiproliferative activity against NAMPT inhibitor-resistant A549 cells assessed as reduction in cell viability in presence of NMN and L-tryptophan measured for 48 hrs by CCK-8 assay; format: functional, cell-based; conditions: Homo sapiens
# A549 [7] = assay: Antiproliferative activity against NAMPT inhibitor-resistant A549 cells assessed as reduction in cell viability in presence of NMN/L-tryptophan/QA measured for 48 hrs by CCK-8 assay; format: functional, cell-based; conditions: Homo sapiens
# A549 [8] = assay: Inhibition of colony formation in NAMPT inhibitor-resistant A549 cells […] by crystal violet staining analysis; format: functional, cell-based; conditions: Homo sapiens, dose 5-15 µM
# A549 [9] = assay: Downregulation of NAD+ level in NAMPT inhibitor-resistant A549 cells at 10 uM measured for 24 hrs; format: functional, cell-based; conditions: Homo sapiens
# A549 [10] = assay: Downregulation of NAD+ level in NAMPT inhibitor-resistant A549 cells at 10 uM measured for 24 hrs in presence of NMN/L-tryptophan/QA; format: functional, cell-based; conditions: Homo sapiens
# A549 [11] = assay: Induction of ROS production in NAMPT inhibitor-resistant A549 cells assessed as ROS accumulation incubated for 24 hrs by DCFH-DA staining based flow cytometry analysis; format: functional, cell-based; conditions: Homo sapiens, dose 5-15 µM
# A549 [12] = assay: Induction of ROS production in NAMPT inhibitor-resistant A549 cells assessed as ROS accumulation at 5 to 15 uM incubated for 24 hrs in presence of NAC by DCFH-DA staining based flow cytometry analysis; format: functional, cell-based; conditions: Homo sapiens, dose 5-15 µM
# A549 [13] = assay: Antiproliferative activity against NAMPT inhibitor-resistant A549 cells assessed as reduction in cell viability in presence of NAC measured for 48 hrs by CCK-8 assay; format: functional, cell-based; conditions: Homo sapiens
# Danio rerio [14] = organism: Danio rerio; assay: Induction of ROS production in zebra fish embryos assessed as increase in green fluorescence at 10 uM measured for 24 hrs by DCFH-DA staining based inverted microscopic analysis; format: functional
# Danio rerio [15] = organism: Danio rerio; assay: Induction of ROS production in zebra fish embryos assessed as increase in green fluorescence at 5 uM measured for 24 hrs by DCFH-DA staining based inverted microscopic analysis; format: functional
# A549 [16] = assay: Antimigratory activity against NAMPT inhibitor-resistant A549 cells assessed as inhibition of cell migration measured after 24 hrs by crystal violet staining based microscopic analysis; format: functional; conditions: Homo sapiens, dose 5-15 µM
# A549 [17] = assay: Antimigratory activity against NAMPT inhibitor-resistant A549 cells assessed as decrease in Snail expression incubated 24 hrs by Western blot analysis; format: functional, cell-based; conditions: Homo sapiens, dose 5-15 µM
# A549 [18] = assay: Antimigratory activity against NAMPT inhibitor-resistant A549 cells assessed as decrease in slug expression incubated 24 hrs by Western blot analysis; format: functional, cell-based; conditions: Homo sapiens, dose 5-15 µM
# A549 [19] = assay: Downregulation of Smad3 expression in NAMPT inhibitor-resistant A549 cells at 5 to 15 uM measured for 24 hrs; format: functional, cell-based; conditions: Homo sapiens, dose 5-15 µM
# A549 [20] = assay: Effect on intracellular lipid level in NAMPT inhibitor-resistant A549 cells measured for 24 hrs by oil red staining based microscopic analysis; format: functional, cell-based; conditions: Homo sapiens
# A549 [21] = assay: Effect on intracellular lipid level in NAMPT inhibitor-resistant A549 cells measured for 24 hrs by nile red staining based microscopic analysis; format: functional, cell-based; conditions: Homo sapiens
# A549 [22] = assay: Downregulation of NAMPT expression in NAMPT NAMPT inhibitor-resistant A549 cells measured for 24 hrs by Western blot analysis; format: functional, cell-based; conditions: Homo sapiens, dose 5-10 µM
# A549 [23] = assay: Downregulation of IDO1 expression in NAMPT inhibitor-resistant A549 cells measured for 24 hrs by Western blot analysis; format: functional, cell-based; conditions: Homo sapiens, dose 5-10 µM
# A549 [24] = assay: Downregulation of IDO1 expression in NAMPT inhibitor-resistant A549 cells measured for 12 hrs in presence of cycloheximide by Western blot analysis; format: functional, cell-based; conditions: Homo sapiens
# A549 [25] = assay: Downregulation of IDO1 expression in NAMPT inhibitor-resistant A549 cells measured for 12 hrs in presence of MG-132 by Western blot analysis; format: functional, cell-based; conditions: Homo sapiens
# A549 [26] = assay: Antimigratory activity against NAMPT inhibitor-resistant A549 cells assessed as reduction in cell migration at 5 uM incubated for 24 hrs in presence of taxol by inverted microscopic analysis; format: functional, cell-based; conditions: Homo sapiens
# [27] = Oral bioavailability in Sprague-Dawley rat at 25 mg/kg; format: ADME, organism-based; conditions: in vivo
# [28] = AUC in Sprague-Dawley rat at 25 mg/kg, po; format: ADME, organism-based; design: dose 25 mg/kg, route po; conditions: in vivo
# [29] = Clearance in Sprague-Dawley rat at 5 mg/kg, iv; format: ADME, organism-based; conditions: in vivo
# [30] = Apparent volume of distribution in Sprague-Dawley rat at 5 mg/kg, iv; format: ADME, organism-based; conditions: in vivo, read-out: Vz
# A549 [31] = assay: Antitumor activity against NAMPT inhibitor-resistant A549 cells xenografted in athymic nude mouse assessed as tumor growth inhibition at 50 mg/kg, po bid measured on day 21 by caliper method; format: functional, Homo sapiens; conditions: A549, 504 h, time 21 day, read-out: TGI
# A549 [32] = assay: Antitumor activity against NAMPT inhibitor-resistant A549 cells xenografted in athymic nude mouse assessed as tumor growth inhibition at 100 mg/kg, po bid measured on day 21 by caliper method; format: functional, Homo sapiens; conditions: A549, 504 h, time 21 day, read-out: TGI
# A549 [33] = assay: Antitumor activity against NAMPT inhibitor-resistant A549 cells xenografted in athymic nude mouse assessed as tumor growth inhibition at 200 mg/kg, po bid measured on day 21 by caliper method; format: functional, Homo sapiens; conditions: A549, 504 h, time 21 day, read-out: TGI
# A549 [34] = assay: Antitumor activity against NAMPT inhibitor-resistant A549 cells xenografted in athymic nude mouse assessed as tumor growth inhibition at 100 mg/kg, po bid measured on day 21 in presence of taxol by caliper method; format: functional, Homo sapiens; conditions: A549, 504 h, time 21 day, read-out: TGI
# A549 [35] = assay: Antitumor activity against NAMPT inhibitor-resistant A549 cells xenografted in athymic nude mouse assessed as reduction in tumor size at 50 to 200 mg/kg, po bid measured on day 21 in presence of taxol by caliper method; format: functional, organism-based; conditions: Homo sapiens, dose 50-200 mg/kg, time 21.0 day
# [36] = Toxicity in athymic nude mouse xenografted with NAMPT inhibitor-resistant A549 cells assessed as change in body weight at 50 to 200 mg/kg, po measured on day 21; format: organism-based; conditions: in vivo, 504 h, dose 50-200 mg/kg, time 21 day
# [37] = Toxicity in athymic nude mouse xenografted with NAMPT inhibitor-resistant A549 cells assessed as mortality at 50 to 200 mg/kg, po measured on day 21; format: organism-based; conditions: in vivo, 504 h, dose 50-200 mg/kg, time 21 day
# A549 [38] = assay: Antitumor activity against NAMPT inhibitor-resistant A549 cells xenografted in athymic nude mouse at 100 to 200 mg/kg, po measured for 14 days in presence of epacadostat; format: functional, organism-based; conditions: Homo sapiens, dose 100-200 mg/kg, time 14.0 day
# A549 [39] = assay: Antitumor activity against NAMPT inhibitor-resistant A549 cells xenografted in athymic nude mouse at 100 to 200 mg/kg, po measured for 14 days in presence of FK866; format: functional, organism-based; conditions: Homo sapiens, dose 100-200 mg/kg, time 14.0 day
# A549 [40] = assay: Antitumor activity against NAMPT inhibitor-resistant A549 cells xenografted in athymic nude mouse at 100 mg/kg, po measured for 14 days in presence of epacadostat; format: functional, organism-based; conditions: Homo sapiens, time 14.0 day
# A549 [41] = assay: Antitumor activity against NAMPT inhibitor-resistant A549 cells xenografted in athymic nude mouse at 100 mg/kg, po measured for 14 days in presence of FK866; format: functional, organism-based; conditions: Homo sapiens, time 14.0 day
# A549 [42] = assay: Antitumor activity against NAMPT inhibitor-resistant A549 cells xenografted in athymic nude mouse assessed as tumor growth inhibition at 2 mg/kg, iv bid measured on day 21 by caliper method; format: functional, Homo sapiens; conditions: A549, 504 h, time 21 day, read-out: TGI
# A549 [43] = assay: Antiproliferative activity against NAMPT inhibitor-resistant A549 cells assessed as reduction in cell viability measured for 48 hrs by CCK-8 assay; conditions: Homo sapiens
# A549 [44] = assay: Antimigratory activity against NAMPT inhibitor-resistant A549 cells assessed as reduction in cell migration at 40 uM incubated for 24 hrs in presence of FK866 by inverted microscopic analysis; format: functional, cell-based; conditions: Homo sapiens
# A549 [45] = assay: cells; conditions: Homo sapiens, A549, 48 h; remark: listed apart in the source
smiles,measurement,setting,value
O=C(/C=C/c1cccnc1)NCCCCC1CCN(C(=O)c2ccccc2)CC1 [DAPORINAD],IC50,A549 [1],34500 nM
same,IC50,A549 [2],52200 nM
O=C(NCc1ccc(C(=O)N2CCC(CCNc3nonc3/C(=N/O)Nc3ccc(F)c(Br)c3)CC2)cc1)c1ccc2nccn2c1,IC50,[3],> 1000 nM
O=C(c1ccc2nccn2c1)N1CCC(CCNc2nonc2/C(=N/O)Nc2ccc(F)c(Br)c2)CC1,IC50,[3],> 1000 nM
O=C(NCCCCCCNc1nonc1/C(=N/O)Nc1ccc(F)c(Br)c1)c1ccc2nccn2c1,IC50,[4],57.7 nM
same,IC50,[3],233 nM
same,IC50,[5],160 nM
same,Activity,A549 [6],inactive
same,Activity,A549 [7],inactive
same,inhibition,A549 [8],Dose-Dependent Effect
same,Activity,A549 [9],Active
same,Activity,A549 [10],Active
same,Activity,A549 [11],Dose-Dependent Effect
same,Activity,A549 [12],inactive
same,Activity,A549 [13],inactive
same,Activity,Danio rerio [14],Active
same,Activity,Danio rerio [15],Active
same,Activity,A549 [16],Dose-Dependent Effect
same,Activity,A549 [17],Dose-Dependent Effect
same,Activity,A549 [18],Dose-Dependent Effect
same,Activity,A549 [19],Active
same,Activity,A549 [20],Active
same,Activity,A549 [21],Active
same,Activity,A549 [22],Dose-Dependent Effect
same,Activity,A549 [23],Dose-Dependent Effect
same,Activity,A549 [24],Active
same,Activity,A549 [25],inactive
same,Activity,A549 [26],Active
same,bioavailability,[27],52.5%
same,AUC,[28],2530 ng·h/mL
same,clearance,[29],106 mL/min/kg
same,Vd,[30],11.5 L/kg
same,inhibition in vivo at 50 mg/kg,A549 [31],24.6%
same,inhibition in vivo at 100 mg/kg,A549 [32],40.2%
same,inhibition in vivo at 200 mg/kg,A549 [33],53.8%
same,inhibition in vivo at 100 mg/kg,A549 [34],64.3%
same,Activity,A549 [35],Active
same,Activity,[36],Non-Toxic
same,Activity,[37],Non-Toxic
same,Activity,A549 [38],Active
same,Activity,A549 [39],Active
same,Activity,A549 [40],Active
same,Activity,A549 [41],Active
same,IC50,A549 [2],5350 nM
O=C(CCNc1nonc1/C(=N/O)Nc1ccc(F)c(Br)c1)Nc1ccc(CNC(=O)c2ccc3nccn3c2)cc1,IC50,[3],151 nM
same,IC50,[5],161 nM
CC(=O)O[C@H]1C(=O)[C@@]2(C)[C@H]([C@H](OC(=O)c3ccccc3)[C@]3(O)C[C@H](OC(=O)[C@H](O)[C@@H](NC(=O)c4ccccc4)c4ccccc4)C(C)=C1C3(C)C)[C@]1(OC(C)=O)CO[C@@H]1C[C@@H]2O [PACLITAXEL],inhibition in vivo at 2 mg/kg,A549 [42],20.2%
same,Activity,A549 [43],Active
NS(=O)(=O)NCCNc1nonc1/C(=N/O)Nc1ccc(F)c(Br)c1 [EPACADOSTAT],Activity,A549 [44],Active
same,Activity,A549 [23],inactive
same,IC50,A549 [2],61100 nM
same,IC50,A549 [45],34500 nM
O=C(NCc1ccc(C(=O)N2CCC(CNc3nonc3/C(=N/O)Nc3ccc(F)c(Br)c3)CC2)cc1)c1ccc2nccn2c1,IC50,[3],> 1000 nM
